This note sets out measurements from patent US6987004B1, “Genes integrating signal transduction pathways” (Massachusetts Institute of Technology, priority 1998, dated 2006).

Holding throughout (format): cell-based
One test deals with Rap1A. The experiment in a line: GTP-bound Rap1A in 293T cells in the absence of cAMP-GEFs. The following applies: treatment alone. The source says: (§1) Forskolin/IBMX treatment given alone had no effect.
cAMP-dependent activation of Rap1 has previously been ascribed to the phosphorylation of Rap1A by PKA, which raises its affinity to smgGDS, a GEF with broad substrate specificity. […] The activation of Rap1A induced by cAMP-GEFI and II is independent of the PKA pathway.

The target in a further test is T1, cAMP-GEFI (Rattus norvegicus, UniProt Q9Z1C8).
T1 sequence (Q9Z1C8 43-926 limits assumed): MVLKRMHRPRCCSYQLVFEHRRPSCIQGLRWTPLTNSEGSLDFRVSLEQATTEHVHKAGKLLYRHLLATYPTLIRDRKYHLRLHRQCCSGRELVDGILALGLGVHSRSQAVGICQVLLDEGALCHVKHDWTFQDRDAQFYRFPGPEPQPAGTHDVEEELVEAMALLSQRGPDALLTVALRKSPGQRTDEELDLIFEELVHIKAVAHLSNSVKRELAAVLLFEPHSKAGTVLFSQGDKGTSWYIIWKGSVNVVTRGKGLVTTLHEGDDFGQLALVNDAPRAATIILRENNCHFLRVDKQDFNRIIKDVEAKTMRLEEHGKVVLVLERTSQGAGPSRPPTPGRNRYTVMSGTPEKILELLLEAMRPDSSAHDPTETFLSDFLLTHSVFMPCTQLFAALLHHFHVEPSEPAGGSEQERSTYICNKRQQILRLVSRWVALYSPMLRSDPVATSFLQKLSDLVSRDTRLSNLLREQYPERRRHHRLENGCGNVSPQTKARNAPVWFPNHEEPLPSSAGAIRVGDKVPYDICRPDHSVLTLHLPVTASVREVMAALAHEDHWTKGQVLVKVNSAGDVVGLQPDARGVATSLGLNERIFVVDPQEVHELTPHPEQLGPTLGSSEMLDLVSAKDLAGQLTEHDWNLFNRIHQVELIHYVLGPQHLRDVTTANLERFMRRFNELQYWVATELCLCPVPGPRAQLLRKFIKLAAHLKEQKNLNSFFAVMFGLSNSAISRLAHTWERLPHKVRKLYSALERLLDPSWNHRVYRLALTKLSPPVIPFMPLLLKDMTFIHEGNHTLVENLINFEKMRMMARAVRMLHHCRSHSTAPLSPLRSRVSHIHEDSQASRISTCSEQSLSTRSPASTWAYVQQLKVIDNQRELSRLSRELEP
The experiment in a line: Ratio of GTP to GDP bound to Rap1A in 293T cells expressing cAMP-GEFI. The arrangement: expressed in transfected cells; host or cells: 293T cells. On the procedure:
(§2) To determine the effect of CalDAG-GEFI on the Erk/MAP kinase cascade, Elk1 activation was measured in 293T cells transfected with CalDAG-GEFI or constitutively active H-Ras (RasV12), or both. 293T cells were transfected by SuperFect (Qiagen) as described in Gotoh, supra, with expression vectors for GST-tagged Ras family proteins and with those for various GEFs. Cells were labeled 24 hours after transfection with ^32Pi for 2 hr. In some experiments, cells were stimulated with either 10 μM A23187 or 1 μM phorbol-12-myristate-13-acetate (TPA) for 3 min. GST-tagged Ras family proteins were collected from cell lysates with glutathione Sepharose. Guanine nucleotides bound to Ras family proteins were separated by thin layer chromatography (TLC). Activation of Elk1 was examined by the PathDetect Elk1 transreporting system (Stratagene). 293T cells were transfected with pFR-Luc and pFA-Elk1 with various expression vectors, and light output was detected and analyzed by the use of LAS1000 film.
as §1
Thus, cAMP-GEFI has a direct effect on Rap1A rather than secondary effects mediated by other Ras-superfamily GEFs.

The target in the next test is T2, cAMP-GEFII (Homo sapiens, UniProt Q8WZA2).
T2 construct: expressed in transfected cells; host or cells: 293T cells
The experiment in a line: Ratio of GTP to GDP bound to Rap1A in 293T cells expressing cAMP-GEFII. As for the experimental part: as §2, §1

T2 sequence (Q8WZA2 whole entry): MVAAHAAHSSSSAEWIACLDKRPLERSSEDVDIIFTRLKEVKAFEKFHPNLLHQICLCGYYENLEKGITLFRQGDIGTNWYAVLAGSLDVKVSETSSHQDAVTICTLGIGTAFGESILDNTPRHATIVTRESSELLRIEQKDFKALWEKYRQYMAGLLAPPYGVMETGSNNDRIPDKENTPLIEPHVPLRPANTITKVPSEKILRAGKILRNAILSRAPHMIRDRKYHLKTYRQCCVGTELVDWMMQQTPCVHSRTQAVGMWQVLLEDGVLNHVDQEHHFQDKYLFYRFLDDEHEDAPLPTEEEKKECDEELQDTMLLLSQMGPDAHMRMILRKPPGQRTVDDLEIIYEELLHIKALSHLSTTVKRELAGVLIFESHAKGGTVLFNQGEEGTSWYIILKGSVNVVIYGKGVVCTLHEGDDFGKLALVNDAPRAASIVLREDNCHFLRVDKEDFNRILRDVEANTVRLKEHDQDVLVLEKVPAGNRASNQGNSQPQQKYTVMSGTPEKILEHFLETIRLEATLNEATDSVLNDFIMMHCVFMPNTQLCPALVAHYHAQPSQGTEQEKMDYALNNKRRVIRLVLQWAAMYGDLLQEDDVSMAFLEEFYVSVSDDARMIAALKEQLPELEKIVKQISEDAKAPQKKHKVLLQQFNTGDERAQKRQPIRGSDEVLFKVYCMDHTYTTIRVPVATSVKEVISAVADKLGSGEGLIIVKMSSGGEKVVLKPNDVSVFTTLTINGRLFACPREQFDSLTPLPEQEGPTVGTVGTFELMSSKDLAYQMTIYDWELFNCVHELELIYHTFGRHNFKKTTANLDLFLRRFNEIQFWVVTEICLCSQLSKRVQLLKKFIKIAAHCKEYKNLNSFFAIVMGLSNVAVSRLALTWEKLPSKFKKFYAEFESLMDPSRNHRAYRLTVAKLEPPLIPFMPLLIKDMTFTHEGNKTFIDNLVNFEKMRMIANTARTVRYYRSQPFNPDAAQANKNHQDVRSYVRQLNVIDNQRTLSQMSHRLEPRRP

Turning to `Nc1ncnc2c1ncn2[C@@H]1O[C@@H]2COP(O)(=S)O[C@H]2[C@H]1O` (stereo partly shown) [Sp-cAMPS], the “Increase of GTP-bound Rap1A without cAMP-GEF” value with Rap1A is given as “not detected”. In addition, at cAMP-GEFI (cAMP-GEFI transfectants), the “Activation of Rap1A” value is reported as “activated Rap1A at levels similar to those induced by forskolin/IBMX”.

Turning to `O=S(=O)(NCCNC/C=C/c1ccc(Br)cc1)c1cccc2cnccc12` [H-89], the “Rap1A activation by cAMP-GEFI in the presence of the PKA inhibitor” value at cAMP-GEFI (293T cells) is recorded as “could still activate Rap1A”. For the same molecule, the “Rap1A activation by cAMP-GEFII in the presence of the PKA inhibitor” value on cAMP-GEFII is listed as “could still activate Rap1A”.
